Assay results: patent publication US9828344B2, “Inhibitors of the notch signaling pathway and secretion for use in medicine” (Leibniz-Institut für Altersforschung Fritz-Lipmann-Institut …, priority 2012, dated 2017)
Peptide text beside a SMILES is read from it. * marks the point of attachment. Cbz = O=C(OCc1ccccc1)*; OtBu = CC(C)(C)O*

How the values were obtained:
[1] = tested on: zebrafish embryos; test: Zebrafish embryo Notch phenotype (somites, ngn1 qPCR and ISH); assay type: in vivo, zebrafish Danio rerio; conditions: 50 μM; for ngn1 positive cell clusters in the developing brain (ISH): compared to DMSO controls; for ngn1 positive cell clusters along the spinal cord (ISH): compared to DMSO-treated control embryos; for ngn1 mRNA levels (qPCR): relative to DMSO controls
Experimental: Cells were incubated with DAPT or 10 μM of the indicated compounds (50 μM in case of FLI-15 and -20) and after 16 h a luciferase assay was performed. […] Changes in relative gene expression levels (fold change) relative to the expression levels in DMSO controls are represented as the mean+/−SD, asterisks indicate p<0.01. Each measurement was taken from two independent samples. Each reaction was measured in triplicate. Changes in the relative expression of ngn1 were standardized to the expression of the housekeeping gene ef1a at 20 hpf. c) ISH with riboprobes specific for ngn1 was performed on dechorionated stage 4 hpf zebrafish embryos. Anterior is to the left, dorsal to the top. Magnifications of the somite region (small box) are shown. Arrows indicate larger ngn1 clusters or stronger ngn1 staining. s, sensory neurons; i, intermediate neurons; m, motor neurons.
FIG. 11: Selected compounds affect somite formation and neurogenesis in vivo in zebrafish embryos. a) Lateral view of typical representative phenotypes induced by DAPT treatment, which were used as a reference to score the effect of compounds. […] Images were taken at 24 hpf. b) Pie chart showing the cumulative relative frequency of the phenotypes in a) at 24 hpf in embryos treated with 20, 50 and 100 iM of the indicated compounds. c) ISH with riboprobes specific for ngn1 was performed on dechorionated stage 4 hpf zebrafish embryos. Anterior is to the left, dorsal to the top. Magnifications of the developing head (box) are shown. Arrows indicate larger ngn1 clusters or stronger ngn1 staining. t, telencephalon; p, protectum; h, hindbrain; d, diencephalon; tg, tegmentum; vrc, ventral rostral cluster.
We wanted to test whether the results obtained with the NotchΔE-EGFP construct are relevant for endogenous Notch signaling. Therefore we made use of C2C12 cells, a well established model for muscle development that expresses endogenous Notch^21,22. After stimulating endogenous Notch signaling by transfecting the Notch ligand Delta, Notch activity was measured by a luciferase assay using a Notch reporter^15 in the presence or absence of compounds (FIG. 4a). […] Next, we tested whether selected compounds would affect Notch signaling in vivo. […] Compounds were added to dechorionated stage 4 hpf zebrafish embryos and the effects were analyzed after 24 h by morphological inspection of somite formation. Phenotypes were ranked to four categories, normal somites, mild somite defects, strong somite defects and developmental delay. […] As an additional parameter we decided to analyze Notch-dependent genes involved in neurogenesis. Primary neurogenesis in zebrafish involves the selection of neuroblasts (repressed by Notch) from proneural clusters (Notch expressing cells), a process regulated in a negative manner by Notch-dependent lateral inhibition^25. Accordingly, neuroblast cells that express the neuronal specification factor neurogenin (ngn1^26) became more abundant when Notch signaling was impaired, for instance upon DAPT treatment^23,27. qPCR analyses on mRNA extracted from equivalent sets of embryos was performed for ngn1 expression (FIG. 4b). […] To confirm the data obtained by qPCR, whole-mount in-situ hybridizations (ISH) using an ngn1 specific riboprobe were performed (FIG. 4c, FIG. 11c). […] Taken together, FLI-06, -14, -15, -19 and -20 inhibited endogenous Notch signaling in vitro and in vivo, corroborating the NotchΔE-EGFP reporter data.
Embryos were obtained from natural spawning of wild-type TüAB strain adults, raised and staged according to supp. Ref 14. DAPT and compounds were applied at 50 iM in E3 embryo medium to zebrafish embryos with chorions torn but not completely removed from sphere stage until the stage of analysis, according to ref 23. Control embryos were mock treated with the same concentration of DMSO dissolved in E3 embryo medium. […]

[2] = tested on: NotchΔE-EGFP; test: Western blot of NotchΔE-EGFP processing in HeLa NotchΔE-EGFP lysates; assay type: cell-based; conditions: 10 μM, 18 h
Experimental: FIG. 2: Selected compounds from final hit list show distinct phenotypes. Hela NotchΔE-EGFP cells were incubated with compounds (10 μM) for 18 h, fixed and analyzed by fluorescence microscopy (a) or lysed, separated by SDS-PAGE, blotted and probed with antibodies against GFP and NICD (b). Tubulin served as loading control. c) Quantitation of NotchΔE-EGFP accumulation and NICD production from 3-4 experiments as shown in (b). […] Arrows, plasma membrane; scalebar, 10 μm.
Next, lysates of HeLa NotchΔE-EGFP cells treated with compounds were analyzed for processing of NotchΔE-EGFP by Western blot using antibodies specific for EGFP and NICD (FIG. 2b, c). The GFP antibody detected both the uncleaved reporter NotchΔE-EGFP and the γ-secretase product NICD-EGFP, whereas the NICD-specific antibody specifically detected cleaved NICD-EGFP. […] The observed effects were not cell type specific, as they were also apparent in U2OS cells stably expressing NotchΔE-EGFP (FIG. 9).

[3] = tested on: microtubuli or actin; test: Microtubule and actin integrity in HeLa cells; assay type: cell-based; conditions: 4 h
[4] = tested on: YFP-GPI; test: Surface transport of YFP-GPI in HeLa cells; assay type: cell-based; conditions: 18 h; 1 ig/ml BFA or 10 iM FLI-06
[5] = molecular target: T1, GBF1 (Homo sapiens, UniProt Q92538); test: GBF1-GFP distribution in transfected HeLa cells; assay type: cell-based; conditions: FLI-06 10 μM, BFA 10 μg/ml, GCA 10 μM, 10 h
T1 construct: expressed in transfected cells; host or cells: HeLa (transient)
T1 sequence (Q92538 whole entry, species assumed): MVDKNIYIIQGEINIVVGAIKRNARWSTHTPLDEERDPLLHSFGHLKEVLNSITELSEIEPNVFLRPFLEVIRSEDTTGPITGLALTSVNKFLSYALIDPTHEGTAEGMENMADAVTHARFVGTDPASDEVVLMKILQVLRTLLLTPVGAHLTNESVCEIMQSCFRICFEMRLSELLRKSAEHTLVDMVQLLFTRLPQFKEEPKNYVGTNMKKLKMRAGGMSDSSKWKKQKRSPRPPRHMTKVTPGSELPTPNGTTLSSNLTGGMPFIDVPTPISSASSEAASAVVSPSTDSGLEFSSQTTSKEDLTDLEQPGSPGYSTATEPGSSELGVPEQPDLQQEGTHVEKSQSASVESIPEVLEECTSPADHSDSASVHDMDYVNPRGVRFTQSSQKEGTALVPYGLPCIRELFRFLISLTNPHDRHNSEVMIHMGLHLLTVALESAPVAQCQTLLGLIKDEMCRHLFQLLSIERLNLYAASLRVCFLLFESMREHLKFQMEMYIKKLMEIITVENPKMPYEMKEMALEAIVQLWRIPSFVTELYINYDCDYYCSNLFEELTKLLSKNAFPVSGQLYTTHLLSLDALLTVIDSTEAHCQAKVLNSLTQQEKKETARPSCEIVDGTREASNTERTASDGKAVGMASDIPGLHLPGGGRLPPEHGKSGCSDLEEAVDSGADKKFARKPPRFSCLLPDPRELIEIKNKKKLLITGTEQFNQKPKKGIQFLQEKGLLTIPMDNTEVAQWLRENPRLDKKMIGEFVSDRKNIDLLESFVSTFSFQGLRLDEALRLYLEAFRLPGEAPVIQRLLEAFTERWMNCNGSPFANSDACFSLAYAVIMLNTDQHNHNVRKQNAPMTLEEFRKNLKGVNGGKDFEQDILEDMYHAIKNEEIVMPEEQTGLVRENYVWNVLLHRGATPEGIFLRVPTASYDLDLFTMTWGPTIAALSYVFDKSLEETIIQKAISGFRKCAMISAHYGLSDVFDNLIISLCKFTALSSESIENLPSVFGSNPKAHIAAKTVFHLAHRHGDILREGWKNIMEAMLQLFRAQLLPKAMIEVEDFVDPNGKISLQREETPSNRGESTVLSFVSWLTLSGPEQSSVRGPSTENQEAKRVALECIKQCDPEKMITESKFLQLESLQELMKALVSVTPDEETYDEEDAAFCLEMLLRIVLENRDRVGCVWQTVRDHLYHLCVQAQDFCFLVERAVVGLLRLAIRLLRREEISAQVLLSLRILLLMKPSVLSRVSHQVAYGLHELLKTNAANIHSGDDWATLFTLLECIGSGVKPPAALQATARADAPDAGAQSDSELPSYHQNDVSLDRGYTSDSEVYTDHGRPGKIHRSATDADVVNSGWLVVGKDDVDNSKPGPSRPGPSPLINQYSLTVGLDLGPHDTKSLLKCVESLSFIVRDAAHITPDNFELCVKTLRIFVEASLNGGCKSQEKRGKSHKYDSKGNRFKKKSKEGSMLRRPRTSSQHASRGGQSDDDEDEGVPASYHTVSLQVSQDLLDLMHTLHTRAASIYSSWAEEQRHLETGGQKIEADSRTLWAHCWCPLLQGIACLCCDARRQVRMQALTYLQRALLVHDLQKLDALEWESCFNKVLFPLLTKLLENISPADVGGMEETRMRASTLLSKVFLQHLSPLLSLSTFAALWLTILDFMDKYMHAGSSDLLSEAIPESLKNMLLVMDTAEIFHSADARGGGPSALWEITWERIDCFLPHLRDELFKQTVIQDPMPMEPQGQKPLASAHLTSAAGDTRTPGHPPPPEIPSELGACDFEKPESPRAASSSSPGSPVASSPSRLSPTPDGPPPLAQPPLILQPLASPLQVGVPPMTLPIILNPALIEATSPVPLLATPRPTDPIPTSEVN

[6] = tested on: SEAP; test: Secreted alkaline phosphatase (SEAP) assay in HeLa cells; assay type: cell-based; conditions: medium measured via photometry
Experimental: FIG. 18: FLI-06 inhibits secretion of secreted alkaline phosphates; FLI-06 kills cancerous, Notch dependent T-cells. a) The secreted alkaline phosphatase (SEAP) assay was carried out. Medium was collected and SEAP secretion was measured via photometry. […] The cells were grown in suspension with the indicated amounts of FLI-06 or DMSO control and growth was determined via FACS analysis.
In order to confirm the inhibitory effect of FLI-06 on secretion we transfected HeLa cells with a plasmid encoding a secreted alkaline phosphatase (SEAP).

[7] = tested on: NotchΔE-EGFP; test: Fluorescence microscopy of reporter localization in HeLa NotchΔE-EGFP cells; assay type: cell-based; conditions: 50 μM compound

SMILES | ngn1 positive cell clusters in the developing brain (ISH) [1] | ngn1 positive cell clusters along the spinal cord (ISH) [1] | ngn1 mRNA levels (qPCR) [1] | NICD-EGFP production [2] | NotchΔE-EGFP level (GFP antibody) [2] | microtubule network ([3]; 1.5 ig/ml nocodazole or 10 iM FLI-06) | actin polymerization and distribution ([3]; 2 iM cytochalasin D or 10 iM FLI-06) | surface transport of YFP-GPI [4] | distribution of GBF1-GFP [5] | secretion of SEAP [6] | localization of NotchΔE-EGFP/NICD-EGFP [7]
CC1=C(C(=O)OC2CCCCC2)C(c2ccc([N+](=O)[O-])cc2)C2=C(CC(C)(C)CC2=O)N1 (centres unmarked) [FLI-06, Cyclohexyl 4-(4′-nitrophenyl)-2,7,7-trimethyl-5-oxo-1,4,5,6,7,8-hexahydroquinoline-3-carboxylate] | differentially expanded | expanded and denser clusters of ngn1 positive cells | significantly increased | decreased NICD-EGFP production | accumulation of NotchΔE-EGFP | does not act on the cytoskeleton | unaffected | inhibit surface transport of YFP-GPI | displayed the distribution of control cells | inhibition of secretion of SEAP | 
Cn1c2ccccc2c2c(C(=O)N3CCN(Cc4ccc5c(c4)OCO5)CC3)cn(C3CCCC3)c(=O)c21 [FLI-14] | differentially expanded | expanded and denser clusters of ngn1 positive cells | significantly increased | decreased NICD-EGFP production | accumulation of NotchΔE-EGFP |  |  |  |  |  | strong reduction of nuclear NICD-EGFP fluorescence and concomitant accumulation at the PM
Cc1ccc(NC(=O)C(NS(=O)(=O)c2cccc3nsnc23)C(C)C)nc1 (centres unmarked) [FLI-15] | differentially expanded | expanded and denser clusters of ngn1 positive cells | significantly increased | decreased NICD-EGFP production | accumulation of NotchΔE-EGFP |  |  |  |  |  | strong reduction of nuclear NICD-EGFP fluorescence and concomitant accumulation at the PM
CC(C)CC(NC(=O)C(Cc1ccccc1)NC(=O)C1CCCN1C(=O)OCc1ccccc1)C(=O)OC(C)(C)C (stereo not drawn) [FLI-19] (Cbz-Pro-Phe-Leu-OtBu; configuration not given here) |  | increased | did not induce significant changes |  | accumulation of NotchΔE-EGFP |  |  |  |  |  | strong reduction of nuclear NICD-EGFP fluorescence and concomitant accumulation at the PM
CC(=O)Nc1ccc2nc(NC(=O)CC34CC5CC(CC(C5)C3)C4)sc2c1 [FLI-20] | differentially expanded | expanded and denser clusters of ngn1 positive cells | significantly increased | decreased NICD-EGFP production | accumulation of NotchΔE-EGFP |  |  |  |  |  | strong reduction of nuclear NICD-EGFP fluorescence and concomitant accumulation at the PM
